Experimental data as given in patent US20060105375A1, “Bioretrosynthetic methods for preparing products and compositions related thereto” (priority 2004, published 2006).
Like-named read-outs stand apart in the source and are kept apart here.

Columns and labels:
[1] = tested on: transformed E. coli BL21(DE3); test: Growth of transformed E. coli in minimal medium (M9) with 1,2,4-triazole carboxamide protoxin; type: cell-based; conditions: 200 μM, kanamycin, 96-well plates
Description: It is widely appreciated that ribavirin is a broad-spectrum antiviral nucleoside analog. […] This would form the basis of a ready-made survival based bioassay for ribavirin-1-phosphate biosynthesis directed evolution (FIG. 20). In this selection scheme an E. coli library containing variants of the purine salvage enzyme hypoxanthine phosphoribosyltransferase (HPRT) is replicated into M9 media supplemented with 1,2,4-triazole carboxamide 7 “protoxin.” Active enzymes react triazole with endogenous PRPP 8 to form ribavirin monophosphate 5, an IMPDH poison resulting in growth inhibition. Negative controls with synthetically prepared 1,2,4-triazole carboxamide 7 and complementation experiments with guanosine monophosphate confirmed the validity of this method. Subsequently, a library of mutagenized HPRT in E. coli was evaluated. The assay can be improved by adding nutrients to the medium.
A small mutant library of ca. 1000 members was replica plated into 96-well plates containing minimal medium (M9), kanamycin and 200 μM synthetically prepared 1,2,4-triazole carboxamide (2), a concentration found to be non-lethal to transformed E. coli BL21(DE3) under these conditions. Plates were grown for 5 days at 37° C. and cell growth was visualized by staining with tetrazolium blue. […] The mutant and wild type HPRT enzymes were expressed as His×6 tagged proteins and purified to homogeneity (FIG. 22B).

[2] = tested on: E. coli BL21(DE3) expressing mutant HPRT; test: Time course sensitivity determination by triazole dilution assay of HPRT mutant clones; type: cell-based; conditions: growth-impaired HPRT mutant clones, FIG. 22A
Description: FIG. 22A is a graph of time course of sensitivity of clones identified by triazole sensitivity screening methodology. FIG. 22B is a SDS-PAGE gel of expression and nickel affinity purification of 8B3 HPRT. Left is cell-free extract and right is purified 8B3.
It is widely appreciated that ribavirin is a broad-spectrum antiviral nucleoside analog. […] This would form the basis of a ready-made survival based bioassay for ribavirin-1-phosphate biosynthesis directed evolution (FIG. 20). In this selection scheme an E. coli library containing variants of the purine salvage enzyme hypoxanthine phosphoribosyltransferase (HPRT) is replicated into M9 media supplemented with 1,2,4-triazole carboxamide 7 “protoxin.” Active enzymes react triazole with endogenous PRPP 8 to form ribavirin monophosphate 5, an IMPDH poison resulting in growth inhibition. […] Subsequently, a library of mutagenized HPRT in E. coli was evaluated. […]
A small mutant library of ca. 1000 members was replica plated into 96-well plates containing minimal medium (M9), kanamycin and 200 μM synthetically prepared 1,2,4-triazole carboxamide (2), a concentration found to be non-lethal to transformed E. coli BL21(DE3) under these conditions. […] The mutant and wild type HPRT enzymes were expressed as His×6 tagged proteins and purified to homogeneity (FIG. 22B).

[3] = molecular target: inosine monophosphate dehydrogenase (IMPDH) (Escherichia coli, UniProt P0ADG7); conditions: cited from earlier work
[4] = molecular target: T1, PNP (purine nucleoside phosphorylase) (Escherichia coli, UniProt P0ABP8); test: Phosphorolysis of inosine vs. dideoxyinosine by PNP (basal activity, Lineweaver-Burke plot); type: biochemical, E. coli; conditions: apparent Km values
T1 sequence (P0ABP8 1-239): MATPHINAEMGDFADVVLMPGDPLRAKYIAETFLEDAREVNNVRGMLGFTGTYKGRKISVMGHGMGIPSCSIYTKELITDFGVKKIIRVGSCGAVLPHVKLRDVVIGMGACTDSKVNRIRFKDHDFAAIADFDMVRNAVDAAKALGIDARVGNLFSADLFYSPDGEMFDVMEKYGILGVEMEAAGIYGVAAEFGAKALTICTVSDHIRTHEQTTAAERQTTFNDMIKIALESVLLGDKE

[5] = substrate: OC[C@H]1O[C@@H](n2cnc3c(O)ncnc32)[C@H](O)[C@@H]1O; test: as above; type: biochemical, E. coli; conditions: other: substrate of PNP; reverse reaction (phosphorolysis, release of hypoxanthine) monitored with colorimetric assay of FIG. 7

inosine monophosphate dehydrogenase (IMPDH), sequence (P0ADG7 whole entry): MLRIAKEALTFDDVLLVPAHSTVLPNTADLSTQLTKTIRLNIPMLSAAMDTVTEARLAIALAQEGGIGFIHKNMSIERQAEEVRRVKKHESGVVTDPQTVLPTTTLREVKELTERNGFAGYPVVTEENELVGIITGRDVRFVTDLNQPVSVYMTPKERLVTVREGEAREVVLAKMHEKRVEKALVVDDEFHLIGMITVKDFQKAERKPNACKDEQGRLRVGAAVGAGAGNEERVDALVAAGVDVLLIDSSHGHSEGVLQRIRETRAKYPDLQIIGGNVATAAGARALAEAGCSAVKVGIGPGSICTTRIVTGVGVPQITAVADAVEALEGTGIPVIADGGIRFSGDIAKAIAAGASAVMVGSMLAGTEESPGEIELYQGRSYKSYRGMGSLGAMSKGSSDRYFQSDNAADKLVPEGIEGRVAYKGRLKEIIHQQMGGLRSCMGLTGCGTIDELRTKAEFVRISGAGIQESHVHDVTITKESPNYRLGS

NC(=O)c1nc[nH]n1 [1,2,4-triazole carboxamide]
lethality to transformed E. coli BL21(DE3) [1]: non-lethal | susceptibility of HPRT mutants to triazole in vivo (versus wild type) [2]: > 2 fold

NC(=O)c1ncn([C@@H]2O[C@H](COP(=O)(O)O)[C@@H](O)[C@H]2O)n1 [ribavirin-1-phosphate 5, ribavirin monophosphate]
inhibition of IMPDH [3]: potent competitive inhibitor | inhibition of IMPDH ([3]; listed as Ribavirin monophosphate): competitive inhibitor

O=c1[nH]cnc2c1ncn2[C@H]1CC[C@@H](CO)O1 [ddI, dideoxyinosine]
Km of ddI relative to that of inosine [4]: > 100 times

B1: PNP (purine nucleoside phosphorylase) (Escherichia coli K-12) (protein)
chain: MATPHINAEMGDFADVVLMPGDPLRAKYIAETFLEDAREVNNVRGMLGFTGTYKGRKISVMGHGMGIPSCSIYTKELITDFGVKKIIRVGSCGAVLPHVKLRDVVIGMGACTDSKVNRIRFKDHDFAAIADFDMVRNAVDAAKALGIDARVGNLFSADLFYSPDGEMFDVMEKYGILGVEMEAAGIYGVAAEFGAKALTICTVSDHIRTHEQTTAAERQTTFNDMIKIALESVLLGDKE
Km [5]: 56 µM
